The numbers were not newly measured in patent US9089636B2, “Methods and devices for delivering GLP-1 and uses thereof” (VALERITAS, INC., priority 2004, dated 2015), which cites them from elsewhere.

In data set [1] the test system is rat PC12 pheochromocytoma cell line.
Data set [2] has as its system rats. The note with it: for blood pressure and heart rate: centrally and peripherally administered.
Another data set has as its target cloned GLP-1 receptor (Homo sapiens, UniProt P43220).
The next data set deals with neonatal GK rat. The settings on record: 5 days.
The subject of data set [3] is BHK fibroblasts expressing a transfected GLP-1 receptor.
In another data set the test system is young and old rats. The note with it: infusion for 5 days.
A further data set deals with cultured myotubes. The note with it: 0.1-1 pM.
The test system of data set [4] is human subjects. The note with it: physiologically relevant concentrations.
Data set [5] deals with rats. The note with it: ICV.
For data set [6], the system named is rats. The settings on record: for effect on GLP-1-induced fecal output: rat, in vivo.
In data set [7] the test system is cultured fetal rat hippocampal neurons. The settings on record: for extent of glutamate-induced cell death: short term cultures.
Another data set has as its system salt-sensitive rats. The note with it: 14 day treatment, high salt diet.
Another data set deals with lean mice. The settings on record: subcutaneous, 2 days.
Data set [8] concerns subjects with type 2 diabetes. The settings on record: following a liquid test meal.
The next data set relates to human volunteers. The note with it: 60 minute infusion, 30 pmol/kg/h.
Another data set deals with fetal pig islet clusters. The note with it: 75-90 day gestational age.
Data set [9] relates to Multiple islet cell lines.
For data set [10], the system named is human subjects with LV dysfunction and acute MI.
For a further data set, the system named is Zucker diabetic rats. The settings on record: 2 day infusion.
In the next data set the test system is human islets. The settings on record: 5 days.
Data set [11] addresses dipeptidylaminopeptidase IV (DPP-IV) (Homo sapiens, UniProt P27487).
For data set [12] the following is noted: in vivo.
A further data set has as its system CNS. The settings on record: in vivo.
A further data set relates to hippocampal neurons. The note with it: systemic administration.
Data set [13] relates to human subjects. The note with it: infusion.
The subject of another data set is blood brain barrier. The settings on record: CD1 mice.
The subject of data set [14] is db/db mice.
In the next data set the test system is rat pancreatectomy model. The note with it: in vivo.
In data set [15] the test system is human islet-like cell clusters. The settings on record: 4 days in vitro.
In data set [16] the test system is db/db mice. The settings on record: daily for 14 days.
The next data set relates to purified rat b cells. The settings on record: combination of cytotoxic cytokines.
[17] abbreviates: after 72-hour infusion at 1.5 pmol/kg per minute.
The mark [18] stands for this setting: after reperfusion, before GLP-1 infusion.

Where two headings read alike, the source gives them in different places. No end group written: not given here.

Chain of dipeptidylaminopeptidase IV (DPP-IV) (P27487 whole entry, species assumed): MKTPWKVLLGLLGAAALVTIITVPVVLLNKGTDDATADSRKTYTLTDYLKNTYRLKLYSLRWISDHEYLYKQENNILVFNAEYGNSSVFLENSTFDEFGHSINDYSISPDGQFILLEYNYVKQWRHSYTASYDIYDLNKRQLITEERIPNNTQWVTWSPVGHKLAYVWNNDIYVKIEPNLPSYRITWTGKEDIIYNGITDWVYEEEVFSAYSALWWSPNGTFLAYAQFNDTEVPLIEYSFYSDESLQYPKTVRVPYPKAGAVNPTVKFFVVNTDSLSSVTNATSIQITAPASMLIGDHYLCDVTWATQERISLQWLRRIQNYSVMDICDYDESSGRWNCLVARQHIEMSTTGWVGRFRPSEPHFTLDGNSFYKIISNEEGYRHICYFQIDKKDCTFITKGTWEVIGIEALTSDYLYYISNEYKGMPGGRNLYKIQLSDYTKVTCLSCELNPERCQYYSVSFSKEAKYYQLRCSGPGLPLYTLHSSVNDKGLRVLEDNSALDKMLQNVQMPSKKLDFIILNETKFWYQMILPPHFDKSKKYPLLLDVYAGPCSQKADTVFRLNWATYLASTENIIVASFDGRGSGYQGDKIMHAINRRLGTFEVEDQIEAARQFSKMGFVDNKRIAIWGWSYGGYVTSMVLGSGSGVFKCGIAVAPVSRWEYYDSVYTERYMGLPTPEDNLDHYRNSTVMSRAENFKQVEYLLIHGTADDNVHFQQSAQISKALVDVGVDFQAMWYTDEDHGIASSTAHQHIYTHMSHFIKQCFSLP
Chain of cloned GLP-1 receptor (P43220 24-463): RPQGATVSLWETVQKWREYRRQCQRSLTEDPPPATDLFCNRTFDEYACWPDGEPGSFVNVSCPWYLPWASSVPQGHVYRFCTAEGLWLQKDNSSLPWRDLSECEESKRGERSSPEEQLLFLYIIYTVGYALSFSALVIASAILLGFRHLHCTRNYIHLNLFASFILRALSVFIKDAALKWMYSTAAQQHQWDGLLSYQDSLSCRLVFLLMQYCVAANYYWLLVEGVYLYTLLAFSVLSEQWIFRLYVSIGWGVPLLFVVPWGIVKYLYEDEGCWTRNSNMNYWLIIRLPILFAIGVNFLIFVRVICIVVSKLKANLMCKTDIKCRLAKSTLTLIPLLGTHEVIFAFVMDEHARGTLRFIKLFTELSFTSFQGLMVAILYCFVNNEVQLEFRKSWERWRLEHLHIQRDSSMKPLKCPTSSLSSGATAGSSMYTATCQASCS

As to `O=S(=O)(NCCNC/C=C/c1ccc(Br)cc1)c1cccc2cnccc12` [H-89], the “effect on the differentiation actions of GLP-1” value in data set [1] is given as “only modest effects”.

As for `COc1cccc(-c2cc(=O)c3ccccc3o2)c1N` [PD98059], the “effect on the differentiation actions of GLP-1” value in data set [1] is listed as “abrogated”.

Consider `Nc1ncnc2c1ncn2[C@@H]1O[C@@H]2COP(O)(=S)O[C@H]2[C@H]1O` (some centres unmarked) [Rp-cAMP, reference compound], for which, in the data set with Min6 mouse islet cells, the “effect on the anti-apoptotic effects of GLP-1” value was “partially blocked”.

In the case of `CN1[C@@H]2CC[C@H]1C[C@@H](OC(=O)C(CO)c1ccccc1)C2` (some centres unmarked) [atropine], the “effect on the stimulatory effect of GLP-1 on blood pressure” value in the data set on rats [2] (normal rats) is “prevented”.

Turning to `CNC1(C)C2CCC(C2)C1(C)C` (centres unmarked) [mecamylamine], in the data set on rats [2] (normal rats), the “effect on the GLP-1-dependent increase in heart rate” value is reported as “blocked” and the “effect on the stimulatory effect of GLP-1 on blood pressure” value was “prevented”.

Regarding “GLP-1 (9-36)amide (EGTFTSDVSSYLEGQAAKEFIAWLVKGR-NH2; UniProt P01275 100-127, looked up, fragment) [GLP-1 (9-36) amide, truncated fragment, primary metabolite of GLP-1 produced by DPP-IV]”, the “effect on the action of GLP-1 7-36 amide” value with cloned GLP-1 receptor is reported as “antagonized”.

Regarding Glucagon-like peptide-1 [GLP-1], the “pancreatic insulin content and total beta-cell mass” value with neonatal GK rat was “enhanced”. Moreover, the cell survival result in data set [3] is “increased”. For the same compound, the β cell mass result with young and old rats was “increased”. In the data set on cultured myotubes, the “glucose incorporation into glycogen” value is “stimulated”. The “pentagastrin-stimulated gastric acid secretion” value with human subjects [4] is on record as “inhibited”. In the data set with rats [5], the food intake result was “dose-dependently inhibits”. Further, the fecal output result in the data set with rats [6] (ICV) is on record as “increase”. Besides, in data set [7], the “protection against glutamate-induced apoptosis” value is on record as “completely protect”. The “extent of glutamate-induced cell death” value in data set [7] is “significantly reduced”. The development of hypertension entry in the data set on salt-sensitive rats was “reduced”. The islet labeling index entry in the data set with lean mice was “increased”. The “Gene or Protein activated by GLP-1” value in the data set with RIN1046-38 cells (GLUT-1 RNA) was “GLUT-1 RNA”; in the data set with RIN1046-38 cells (Hexokinase I RNA), “Hexokinase I RNA”; in the data set with RIN1046-38 cells (SNAP-25 phosphorylation), “SNAP-25 phosphorylation”; in the data set with INS-1 cells (Akt and IRS proteins), “Akt and IRS proteins”; in the data set on INS-1 cells (Calcineurin and NFAT), “Calcineurin and NFAT”; with INS-1 cells (Glucokinase), “Glucokinase”. Moreover, the “Gene or Protein activated by GLP-1” value in the data set on INS-1 cells (Immediate early genes) was “Immediate early genes”; in the data set on INS-1 cells (Kir 6.2 RNA), “Kir 6.2 RNA”; with Multiple cell models, “Insulin RNA”; in data set [9], “Pdx-1 RNA and protein”. In the data set with AR42J cell line, the “differentiation to an endocrine phenotype” value was “promotes”. Besides, the “peak plasma level of GLP-1” value reads like this: (continuous 5 day subcutaneous infusion) 88.7 pM; (subcutaneous injection 30 minutes before meals) 269.4 pM. Further, the gastric emptying entry in data set [8] was “inhibits”. In addition, in the data set with human volunteers, the “Rd (glucose disposal)” value is “no significant change”. Moreover, the “decrease in Ra (endogenous glucose production)” value in the data set on human volunteers is 17%. Moreover, the plasma glucose entry with human volunteers is recorded as “decreased”. Moreover, in the data set on calpain, the calpain activity result is on record as “decreased”. For the same compound, in the data set on fetal pig islet clusters, the glucose-dependent insulin secretion result was “promoted”. Besides, the cephalic-induced antral motility result in the data set with pigs is listed as “strongly inhibited”. In the data set with muscle strips, the glycogen synthesis result is “stimulated”. For the same compound, in the data set with rats [2], the “blood pressure and heart rate” value is listed as “dose-dependently increased”. Further, the “extent of hydrogen peroxide-induced apoptosis” value in the data set on Min6 mouse islet cells (in vitro) is on record as “reduced”. Besides, the “insulin expression in subsets of cells” value in the data set with human NIP cells is “induced”. For the same compound, the LVEF in data set [10] (setting [17]) is 39+2%; in data set [10] (setting [18]), 29+2%. In addition, the “global wall motion score indexes” value in [10] (setting [17]) is listed as 1.63 ± 0.09; in [10] (setting [18]), 1.94 ± 0.11. Also, the “regional wall motion score indexes” value in [10] (setting [17]) is on record as 2.02 ± 0.11; in data set [10] (setting [18]), 2.53 ± 0.08. Further, the “plasma glucose and free fatty acids” value in data set [10] (human, in vivo) is reported as “significant decrease”. Moreover, the “islet size and β cell mass” value in the data set with Zucker diabetic rats is “increased”. In addition, the “percentage of apoptotic β cells” value in the data set with Zucker diabetic rats is “significantly reduced”. Besides, the cell death result in the data set on human islets is given as “decreased”. In the data set with human islets, the glucose-stimulated insulin secretion result is “improved”. Further, the contraction amplitude entry in the data set on rat cardiac myocytes is listed as “decrease”. Besides, in the data set with rat cardiac myocytes, the “intracellular cAMP” value is recorded as “increased”.

Consider Val8-GLP-1(7-37)OH, for which the DPP-IV degradation entry in data set [11] is on record as “resistant”. In addition, the optimum plasma levels in [12] is 30-200 picomoles/liter.

Consider “[Ser8]GLP-1 (HSEGTFTSDVSSYLEGQAAKEFIAWLVKGRG; also: radiolabel, position not given here; UniProt P01275 98-128, looked up, variant A8S)”, for which, in the data set with CNS, the “uptake into the CNS” value is given as “not saturable”.

As for [Ser(2)]exendin(1-9), the “kainate-induced apoptosis of hippocampal neurons” value in the data set with hippocampal neurons is “prevents”.

In the case of astressin, the “effect on GLP-1-induced fecal output” value in the data set with rats [6] is listed as “blocked”.

Turning to exendin (9-39), the food intake result in the data set on rats [5] was “increased”. Also, in the data set with rats [6], the “effect on GLP-1-induced fecal output” value is listed as “blocked”. Further, the “effect on the insulinotropic and glucagonostatic effects of exogenous GLP-1” value in the data set on human subjects [13] is given as “blocked”.

Regarding exendin-4, in the data set with neonatal GK rat, the “pancreatic insulin content and total beta-cell mass” value is on record as “enhanced”. Besides, in data set [3], the cell survival entry is on record as “increased”. In addition, the β cell proliferation result in the data set with ob/ob mice is given as “not”. The “crossing of the blood brain barrier” value with blood brain barrier is on record as “readily crosses”. Also, in the data set with db/db mice [14], the β cell proliferation result is reported as “increased”. For the same compound, in [7], the “protection against glutamate-induced apoptosis” value is “completely protect” and the “extent of glutamate-induced cell death” value is given as “significantly reduced”. Moreover, the “differentiation to an endocrine phenotype” value with AR42J cell line is “promotes”. Besides, in the data set with rat pancreatectomy model, the “glucose intolerance following partial pancreatectomy” value was “attenuates”; the “islet neogenesis and β cell proliferation” value is given as “increases”. In addition, the “β cell apoptosis induced by streptozotocin (STZ)” value with mice is “reduced”. Besides, in the data set with rats [2], the “blood pressure and heart rate” value was “dose-dependently increased”. Moreover, in the data set on Capan-1, the “number of cells exhibiting immunopositivity for insulin or glucagon” value is “significant increase”. In [15], the Pdx-1 expression result is recorded as “enhance” and the insulin expression result is “not”. Moreover, in the data set on db/db mice [16], the “numbers of Tunel+ apoptotic β cells” value was “reduced”, the “progression to more frank diabetes” value was “prevented” and the β cell mass entry is listed as “increased”. For the same compound, the “insulin expression in subsets of cells” value in the data set with human NIP cells is recorded as “induced”. Besides, the “extent of apoptotic cell death” value in the data set with purified rat b cells is recorded as “directly reduced”.
